Assay results reported in patent publication US12421191B2, “3-hydroxyoxindole derivatives as CRHR2 antagonist” (RaQualia Pharma Inc., priority 2020, dated 2025).

Target: T1, human CRHR2-alpha (Homo sapiens, UniProt Q13324)
T1 construct: host or cells: CHO-K1
T1 sequence (Q13324 1-411): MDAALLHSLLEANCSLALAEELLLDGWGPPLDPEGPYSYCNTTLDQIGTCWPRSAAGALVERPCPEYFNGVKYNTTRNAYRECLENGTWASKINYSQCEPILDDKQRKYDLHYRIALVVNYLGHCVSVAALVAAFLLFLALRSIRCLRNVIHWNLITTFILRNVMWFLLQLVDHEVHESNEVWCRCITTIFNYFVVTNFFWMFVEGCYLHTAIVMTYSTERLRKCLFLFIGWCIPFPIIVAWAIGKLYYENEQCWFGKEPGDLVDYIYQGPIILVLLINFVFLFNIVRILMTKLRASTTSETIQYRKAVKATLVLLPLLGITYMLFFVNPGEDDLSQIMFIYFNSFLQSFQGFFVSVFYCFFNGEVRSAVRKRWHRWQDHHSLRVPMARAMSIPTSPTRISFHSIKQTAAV
Test: cAMP functional assay for human CRHR2 (LANCE Ultra TR-FRET)
Type: cell-based
Settings: inhibition of cAMP production in CHO-K1 cells stably expressing human CRHR2-alpha, EC90 of human urocortin2 as agonist; read-out: IC50 against CRHR2
Experimental: cAMP functional assay for human CRHR2 The ability of the compounds of this invention to inhibit either CRHR2 is assessed by 3′,5′-cyclic adenosine monophosphate (cAMP) production in cells using the LANCE Ultra cAMP assay kit (ParkinElmer), which are designed based on the homogeneous time-resolved fluorescence resonance energy transfer (TR-FRET) immunoassay.
CHO-K1 (Chinese hamster ovary) cells stably expressing human CRHR2-alpha (DiscoveRX, Cat. 95-0048C2) are grown in HAM's F12 media supplemented with 10% fetal bovine serum (FBS), 100 units/mL penicillin G, 100 microg/mL hygromycin and 0.5 microg/mL geneticin at 37° C. in 5% CO2 humidified incubator to 80% confluence. After 7 hours starvation treatment in culture media containing 0.1% FBS, the cells are washed with Hanks balanced salt solution (HBSS) and cryopreserved.
For cAMP assay, frozen cells are thawed and washed with HBSS, followed by resuspending cells in assay buffer (HBSS containing 0.1% bovine serum albumin, 0.5 mM isobutylmethylxanthine and 5 mM Hepes, pH 7.4) at the appropriate concentration for the assay. The cell suspensions are plated on 384-well microplates (Greiner Bio-One) at a density of 4,000 cells per well. After preincubating the cells with various concentrations of the compounds for 30 min at 25° C., an assay buffer containing EC90 concentration of agonist is added and the cells are incubated for 30 min at 25° C. Human urocortin2 (Peptide Institute) is used as agonists for CRHR2. For the termination of assay, europium-labeled cAMP tracer and ULight (registered trademark) dye labeled cAMP antibodies, both prepared with Lance-Ultra cAMP detection reagent (PerkinElmer) are added in the plate and incubate for 60 min at 25° C. After incubation, TR-FRET signal is detected by EnVision plate reader (PerkinElmer). The IC50 values for compounds are calculated from dose-response curves by fitting the percent inhibition using XLfit (ID Business Solutions).

Question: Which IC50 does the source give for `COc1ccc(F)c(C2(O)C(=O)N(C[C@H]3CC[C@H](NC(=O)c4cc(Cl)cnc4C(F)F)CC3)c3cc(F)ccc32)c1` (some centres unmarked) [Example 156, 5-chloro-2-(difluoromethyl)-N-((1r,4r)-4-((6-fluoro-3-(2-fluoro-5-methoxyphenyl)-3-hydroxy-2-oxoindolin-1-yl)methyl)cyclohexyl) nicotinamide] here?
Answer: The IC50 was < 200 nM.

Question: `O=C(N[C@H]1CC[C@H](CN2C(=O)C(O)(c3sccc3F)c3ccccc32)CC1)c1cc(Cl)cnc1C(F)F` (some centres unmarked) [Example 95, 5-chloro-2-(difluoromethyl)-N-((1r,4r)-4-((3-(3-fluorothiophen-2-yl)-3-hydroxy-2-oxoindolin-1-yl)methyl)cyclohexyl) nicotinamide] was tested. Which IC50 did it give?
Answer: The IC50 was < 200 nM.

Question: How did the IC50 turn out when `N#Cc1ccc(F)c(C2(O)C(=O)N(C[C@H]3CC[C@H](NC(=O)c4cc(Cl)cnc4C(F)F)CC3)c3ccccc32)c1` (some centres unmarked) [Example 59, 5-chloro-N-((1r,4r)-4-((3-(5-cyano-2-fluorophenyl)-3-hydroxy-2-oxoindolin-1-yl)methyl)cyclohexyl)-2-(difluoromethyl)nicotinamide] was run?
Answer: Its IC50 is < 200 nM.

Question: Which IC50 does the source give for `O=C(N[C@H]1CC[C@H](CN2C(=O)C(O)(c3ccccc3F)c3cccnc32)CC1)c1cc(Cl)cnc1C(F)F` (some centres unmarked) [Example 94, 5-chloro-2-(difluoromethyl)-N-((1r,4r)-4-((3-(2-fluorophenyl)-3-hydroxy-2-oxo-2,3-dihydro-1H-pyrrolo[2,3-b]pyridin-1-yl)methyl)cyclohexyl) nicotinamide] here?
Answer: The IC50 was < 200 nM.

Question: Which IC50 does the source give for `COc1ccc2c(c1)N(C[C@H]1CC[C@H](NC(=O)c3cc(Cl)cnc3C(F)F)CC1)C(=O)C2(O)c1ccccc1F` (some centres unmarked) [Example 105, 5-chloro-2-(difluoromethyl)-N-((1r,4r)-4-((3-(2-fluorophenyl)-3-hydroxy-6-methoxy-2-oxoindolin-1-yl)methyl)cyclohexyl) nicotinamide] here?
Answer: The IC50 was < 200 nM.

Question: With `O=C(N[C@H]1CC[C@H](CN2C(=O)C(O)(c3cccc(F)c3F)c3ccccc32)CC1)c1cc(Cl)cnc1C(F)F` (some centres unmarked) [Example 40, 5-chloro-2-(difluoromethyl)-N-((1r,4r)-4-((3-(2,3-difluorophenyl)-3-hydroxy-2-oxoindolin-1-yl)methyl)cyclohexyl) nicotinamide] as the molecule, how does the IC50 read?
Answer: The IC50 was < 200 nM.

Question: Which IC50 does the source give for `O=C(N[C@H]1CC[C@H](CN2C(=O)C(O)(c3ccc(F)cn3)c3ccc(F)cc32)CC1)c1cc(Cl)cnc1C(F)F` (some centres unmarked) [Example 79, 5-chloro-2-(difluoromethyl)-N-((1r,4r)-4-((6-fluoro-3-(5-fluoropyridin-2-yl)-3-hydroxy-2-oxoindolin-1-yl)methyl)cyclohexyl) nicotinamide] here?
Answer: The IC50 was < 200 nM.

Question: How did the IC50 turn out when `O=C(N[C@H]1CC[C@H](CN2C(=O)C(O)(c3ccsc3)c3ccccc32)CC1)c1cc(Cl)cnc1C(F)F` (some centres unmarked) [Example 92, 5-chloro-2-(difluoromethyl)-N-((1r,4r)-4-((3-hydroxy-2-oxo-3-(thiophen-3-yl)indolin-1-yl)methyl)cyclohexyl) nicotinamide] was run?
Answer: The IC50 was < 200 nM.

Question: For `COc1cccc2c1C(O)(c1cccc(F)c1F)C(=O)N2C[C@H]1CC[C@H](NC(=O)c2cc(Cl)cnc2C(F)F)CC1` (some centres unmarked) [Example 158, 5-chloro-2-(difluoromethyl)-N-((1r,4r)-4-((3-(2,3-difluorophenyl)-3-hydroxy-4-methoxy-2-oxoindolin-1-yl)methyl)cyclohexyl) nicotinamide], which IC50 is on record?
Answer: The IC50 was < 200 nM.

Question: `COc1cc(C2(O)C(=O)N(C[C@H]3CC[C@H](NC(=O)c4cc(Cl)cnc4C(F)F)CC3)c3ccccc32)c(F)cn1` (some centres unmarked) [Example 27, 5-chloro-2-(difluoromethyl)-N-((1r,4r)-4-((3-(5-fluoro-2-methoxypyridin-4-yl)-3-hydroxy-2-oxoindolin-1-yl)methyl)cyclohexyl) nicotinamide] was tested. Which IC50 did it give?
Answer: The IC50 was < 200 nM.

Question: `O=C(N[C@H]1CC[C@H](CN2C(=O)C(O)(c3ccc(Cl)cn3)c3c(F)cccc32)CC1)c1cc(Cl)cnc1C(F)F` (some centres unmarked) [Example 140, 5-chloro-N-((1r,4r)-4-((3-(5-chloropyridin-2-yl)-4-fluoro-3-hydroxy-2-oxoindolin-1-yl)methyl)cyclohexyl)-2-(difluoromethyl)nicotinamide] was tested. Which IC50 did it give?
Answer: Its IC50 is < 200 nM.

Question: How did the IC50 turn out when `Cc1cccc2c1C(O)(c1ccccc1F)C(=O)N2C[C@H]1CC[C@H](NC(=O)c2cc(Cl)cnc2C(F)F)CC1` (some centres unmarked) [Example 179, 5-chloro-2-(difluoromethyl)-N-((1r,4r)-4-((3-(2-fluorophenyl)-3-hydroxy-4-methyl-2-oxoindolin-1-yl)methyl)cyclohexyl) nicotinamide] was run?
Answer: Its IC50 is < 200 nM.

Question: With `O=C(N[C@H]1CC[C@H](CN2C(=O)C(O)(c3ccccc3)c3ccc(Cl)cc32)CC1)c1cc(Cl)cnc1C(F)F` (some centres unmarked) [Example 30, 5-chloro-N-((1r,4r)-4-((6-chloro-3-hydroxy-2-oxo-3-phenylindolin-1-yl)methyl)cyclohexyl)-2-(difluoromethyl)nicotinamide] as the molecule, how does the IC50 read?
Answer: Its IC50 is < 200 nM.

Question: With `Cc1ccc(C2(O)C(=O)N(C[C@H]3CC[C@H](NC(=O)c4cc(Cl)cnc4C(F)F)CC3)c3ccccc32)cc1` (some centres unmarked) [Example 56, 5-chloro-2-(difluoromethyl)-N-((1r,4r)-4-((3-hydroxy-2-oxo-3-(p-tolyl)indolin-1-yl)methyl)cyclohexyl) nicotinamide] as the molecule, how does the IC50 read?
Answer: Its IC50 is < 200 nM.

Question: For `COc1ccc(C2(O)C(=O)N(C[C@H]3CC[C@H](NC(=O)c4cc(Cl)cnc4C(F)F)CC3)c3ccccc32)c(F)c1` (some centres unmarked) [Example 54, 5-chloro-2-(difluoromethyl)-N-((1r,4r)-4-((3-(2-fluoro-4-methoxyphenyl)-3-hydroxy-2-oxoindolin-1-yl)methyl)cyclohexyl) nicotinamide], which IC50 is on record?
Answer: The IC50 was < 200 nM.

Question: Which IC50 does the source give for `O=C(N[C@H]1CC[C@H](CN2C(=O)C(O)(c3ccccc3F)c3ccc(Cl)cc32)CC1)c1cc(Cl)cnc1C(F)F` (some centres unmarked) [Example 170, 5-chloro-N-((1r,4r)-4-((6-chloro-3-(2-fluorophenyl)-3-hydroxy-2-oxoindolin-1-yl)methyl)cyclohexyl)-2-(difluoromethyl)nicotinamide] here?
Answer: Its IC50 is < 200 nM.

Question: With `COc1ccc(F)c(C2(O)C(=O)N(C[C@H]3CC[C@H](NC(=O)c4cc(Cl)cnc4C)CC3)c3ccccc32)c1` (some centres unmarked) [Example 128, 5-chloro-N-((1r,4r)-4-((3-(2-fluoro-5-methoxyphenyl)-3-hydroxy-2-oxoindolin-1-yl)methyl)cyclohexyl)-2-methylnicotinamide] as the molecule, how does the IC50 read?
Answer: The IC50 was < 200 nM.

Question: For `O=C(N[C@H]1CC[C@H](CN2C(=O)C(O)(c3ccc(F)cn3)c3ccccc32)CC1)c1cc(Cl)cnc1C(F)F` (some centres unmarked) [Example 18, 5-chloro-2-(difluoromethyl)-N-((1r,4r)-4-((3-(5-fluoropyridin-2-yl)-3-hydroxy-2-oxoindolin-1-yl)methyl)cyclohexyl) nicotinamide], which IC50 is on record?
Answer: The IC50 was < 200 nM.

Question: How did the IC50 turn out when `O=C(N[C@H]1CC[C@H](CN2C(=O)C(O)(c3ccccc3F)c3c(F)cccc32)CC1)c1cc(Cl)cnc1C(F)F` (some centres unmarked) [Example 191, 5-chloro-2-(difluoromethyl)-N-((1r,4r)-4-((4-fluoro-3-(2-fluorophenyl)-3-hydroxy-2-oxoindolin-1-yl)methyl)cyclohexyl) nicotinamide] was run?
Answer: Its IC50 is < 200 nM.

Question: `O=C(N[C@H]1CC[C@H](CN2C(=O)C(O)(c3cccc(Cl)c3F)c3ccc(F)cc32)CC1)c1cc(Cl)cnc1C(F)F` (some centres unmarked) [Example 117, 5-chloro-N-((1r,4r)-4-((3-(3-chloro-2-fluorophenyl)-6-fluoro-3-hydroxy-2-oxoindolin-1-yl)methyl)cyclohexyl)-2-(difluoromethyl)nicotinamide] was tested. Which IC50 did it give?
Answer: The IC50 was < 200 nM.

Question: How did the IC50 turn out when `O=C(N[C@H]1CC[C@H](CN2C(=O)C(O)(c3ccc(Cl)cn3)c3ccc(F)cc32)CC1)c1cc(Cl)cnc1C(F)F` (some centres unmarked) [Example 119, 5-chloro-N-((1r,4r)-4-((3-(5-chloropyridin-2-yl)-6-fluoro-3-hydroxy-2-oxoindolin-1-yl)methyl)cyclohexyl)-2-(difluoromethyl)nicotinamide] was run?
Answer: The IC50 was < 200 nM.

Question: `O=C(N[C@H]1CC[C@H](CN2C(=O)C(O)(c3ccccc3F)c3cc(F)ccc32)CC1)c1cc(Cl)cnc1C(F)F` (some centres unmarked) [Example 93, 5-chloro-2-(difluoromethyl)-N-((1r,4r)-4-((5-fluoro-3-(2-fluorophenyl)-3-hydroxy-2-oxoindolin-1-yl)methyl)cyclohexyl) nicotinamide] was tested. Which IC50 did it give?
Answer: The IC50 was < 200 nM.

Question: How did the IC50 turn out when `COc1cccc(C2(O)C(=O)N(C[C@H]3CC[C@H](NC(=O)c4cc(Cl)cnc4C(F)F)CC3)c3ccccc32)c1F` (some centres unmarked) [Example 66, 5-chloro-2-(difluoromethyl)-N-((1r,4r)-4-((3-(2-fluoro-3-methoxyphenyl)-3-hydroxy-2-oxoindolin-1-yl)methyl)cyclohexyl) nicotinamide] was run?
Answer: The IC50 was < 200 nM.
